# Test results from US12331038B2, “Hexone glucokinase inhibitor and use thereof” (SHANDONG XUANZHU PHARMA CO., LTD., priority 2019, dated 2025).
# Tests used:
# [1] = biological target: T1, KHK-C (Homo sapiens (Human), UniProt P50053); test: Inhibitory activity against KHK-C kinase in vitro (ADP-Glo), Experimental Protocol II; format: biochemical; details: 1 nM KHK-C, 100 μM ATP, 200 μM D-Fructose, control drug top concentration 1000 nM
# Experimental: Experimental Protocol II: 1. Compound Dilution • 1) The compounds of the present invention and the control drug were formulated in DMSO to 10 mM as stock solutions for test. • 2) The stock solutions of the compounds of the present invention were diluted by 10-fold to 1 mM, and then further diluted in a 3-fold gradient to 11 concentrations, with the highest concentration being 1 mM. The stock solution of the control drug was diluted by 100-fold to 0.1 mM, and then further diluted in a 3-fold gradient to 11 concentrations, with the highest concentration being 0.1 mM. • 3) 0.1 μL of the compounds of the present invention and the control drug as diluted was transferred with Echo550 to a 384-well plate, in duplicate per concentration, and then centrifuged at 1000 rpm for 1 min. 2. Enzyme Reaction Test • 1) 5 μL of KHK-C kinase working solution was added to the 384-well plate, centrifuged at 1000 rpm for 1 min, and then incubated at room temperature of 25° C. for 15 min. • 2) 5 μL of the substrate working solution was added to the 384-well plate to initiate the kinase reaction, centrifuged at 1000 rpm for 1 min, and incubated at room temperature of 25° C. for 60 min. • 3) The final concentrations of the KHK-C kinase reaction system were 1 nM for KHK-C, 100 μM for ATP, 200 μM for D-Fructose, 50 mM for HEPES, 10 mM for MgCl2, and 0.01% for Brij35, and the final concentration of DMSO was 1%. • 4) The final concentrations of the test compounds were 10000 nM, 3333.33 nM, 1111.11 nM, 370.37 nM, 123.457 nM, 41.15 nM, 13.71 nM, 4.572 nM, 1.524 nM, 0.508 nM, and 0.169 nM, respectively. • 5) The final concentrations of the control drug were 1000 nM, 333.33 nM, 111.11 nM, 37.037 nM, 12.346 nM, 4.115 nM, 1.371 nM, 0.4572 nM, 0.1524 nM, 0.0508 nM, and 0.0169 nM, respectively. 3. Reaction Termination and Detection • 1) The 384-well plate was added with 10 μL of the ADP Glo reagent, centrifuged at 1000 rpm for 1 min, and then incubated at room temperature of 25° C. for 40 min. • 2) The 384-well plate was added with 20 μL of the kinase detection reagent, centrifuged at 1000 rpm for 1 min, and then incubated at room temperature of 25° C. for 40 min. • 3) After the reaction was completed, the […] value LUM was read on Envision. 4. Data Analysis The following equation was used to calculate the inhibition (% inh): […]
# [2] = tested on: HepG2 cells; test: Inhibition of production of fructose-1-phosphate induced by D-Fructose in HepG2 cells (LC-MS); format: cell-based; details: 30 min compound pre-incubation, D-Fructose 3 hours
# Experimental: Experimental Protocol: 1. Cell Culture and Inoculation • 1) HepG2 cells in the logarithmic growth phase were collected and counted with a […]. The Trypan blue exclusion method was used to detect cell viability and ensure that cell viability is 90% or above. • 2) The concentration of HepG2 cells was adjusted, and 81 μL of the cell suspension in a FBS-free basal medium (starvation treatment) was add to a 96-well plate, with a cell inoculum amount of 5×10^4 cells per test well. • 3) The HepG2 cells in the 96-well plate were cultured overnight at 37° C., 5% CO2, and 95% humidity. 2. Administration • 1) Before administration, 9 μL of FBS was added to the test wells of the 96-well plate to stop the starvation treatment. • 2) 10× stock solutions of the individual test compounds were prepared by dilution in a 3-fold gradient to 8 concentrations, with the highest concentration of 100 μM. 10 μL of the test compound solutions was added to each well of the 96-well plate inoculated with the cells, in triplicate per test compound concentration. For the solvent control, 10 μL of 1% DMSO solution was added to each well, in triplicate. • 3) The cells in the 96-well plate added with the test compounds were incubated at 37° C., 5% CO2, and 95% humidity for 30 min. • 4) An 11-fold D-Fructose solution was prepared at the concentration of 220 mM. 10 μL of the D-Fructose solution was added to the 96-well plate inoculated with HepG2 cells per well, in triplicate. For the solvent control, 10 μL of 11% DPBS solution was added, in triplicate. • 5) The cells in the 96-well plate added with D-fructose were incubated at 37° C., 5% CO2, and 95% humidity for 3 hours. 3. Sample Treatment The medium in the 96-well plate was removed, and the cells in the 96-well plate were washed with cold DPBS (200 μl/well) for 3 times. 30 μL of cold 10 mM ammonium acetate (pH 7.4) was added into each well to lyse the cells (hypotonic lysis). After lysis on ice for 5 minutes, the cells were fully pipetted and the cell lysate was taken for LC-MS analysis. 4. Data Analysis The data were analyzed with GraphPad Prism 5.0 software, and fitted with nonlinear S-curve regression, so as to obtain a dose-effect curve to calculate the EC50 value. 5.
# [3] = biological target: T1, KHK-C; test: Inhibitory activity against KHK-C kinase in vitro (ADP-Glo), Experimental Protocol I; format: biochemical; details: 1 nM KHK-C, 100 μM ATP, 200 μM D-Fructose, control drug top concentration 10000 nM
# Experimental: 2. […] 3. Reaction Termination and Detection • 1) The 384-well plate was added with 10 μL of the ADP Glo reagent, centrifuged at 1000 rpm for 1 min, and then incubated at room temperature of 25° C. for 40 min. • 2) The 384-well plate was added with 20 μL of the kinase detection reagent, centrifuged at 1000 rpm for 1 min, and then incubated at room temperature of 25° C. for 40 min. • 3) After the reaction was completed, the […] value LUM was read on Envision. 4. Data Analysis The following equation was used to calculate the inhibition (% inh): […]
# T1 sequence (P50053 whole entry): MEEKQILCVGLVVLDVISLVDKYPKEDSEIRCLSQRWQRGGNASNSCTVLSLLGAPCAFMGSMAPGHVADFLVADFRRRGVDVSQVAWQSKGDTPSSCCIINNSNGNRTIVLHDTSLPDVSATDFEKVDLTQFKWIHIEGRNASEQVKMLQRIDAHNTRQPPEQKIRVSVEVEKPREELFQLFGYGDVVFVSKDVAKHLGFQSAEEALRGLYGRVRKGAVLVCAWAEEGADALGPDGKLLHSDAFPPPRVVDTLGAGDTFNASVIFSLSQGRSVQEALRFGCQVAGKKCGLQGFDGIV
compound,measurement,setting,value
"CC1C(F)CN1c1nc(N2C[C@@H]3[C@@H](CC(=O)O)[C@@H]3C2)c2c(n1)C(F)(F)CC2 (stereo partly drawn) [Compound 6-1, 2-((1R,5S,6s)-3-(7,7-difluoro-2-(3-fluoro-2-methylazetidin-1-yl)-6,7-dihydro-5H-cyclopenta[d]pyrimidin-4-yl)-3-azabicyclo[3.1.0]hexan-6-yl)acetic acid]",IC50,[1],0.9 nM
same,EC50,[2]; Homo sapiens,39 nM
"C[C@H]1N(c2nc(N3C[C@@H]4[C@@H](CC(=O)O)[C@@H]4C3)c3c(n2)C(F)(F)CCC3)CC1(F)F (single isomer, unassigned) [Compound 4-2]",IC50,[1],1.5 nM
same,EC50,[2]; Homo sapiens,18.2 nM
"C[C@H]1CCN1c1nc(N2C[C@@H]3C(CC(=O)O)[C@@H]3C2)cc(C(F)(F)F)n1 (stereo partly drawn) [PF-06835919, reference compound]",EC50,[2],169 nM
"C[C@H]1CCN1c1nc(N2C[C@@H]3[C@@H](CC(=O)O)[C@@H]3C2)c2c(n1)C(F)(F)CCC2 [Compound 2, 2-((1R,5S,6R)-3-(8,8-difluoro-2-((S)-2-methylazetidin-1-yl)-5,6,7,8-tetrahydroquinazolin-4-yl)-3-azabicyclo[3.1.0]hexan-6-yl)acetic acid]",IC50,[3],0.52 nM
same,EC50,[2]; Homo sapiens,14.5 nM
"CC1C(F)CN1c1nc(N2C[C@@H]3[C@@H](CC(=O)O)[C@@H]3C2)c2c(n1)C(F)(F)CCC2 (stereo partly drawn) [Compound 3-1, 2-((1R,5S,6s)-3-(8,8-difluoro-2-(3-fluoro-2-methylazetidin-1-yl)-5,6,7,8-tetrahydroquinazolin-4-yl)-3-azabicyclo[3.1.0]hexan-6-yl)acetic acid]",IC50,[1],0.73 nM
same,EC50,[2]; Homo sapiens,7.3 nM
"CC1N(c2nc(N3C[C@@H]4[C@@H](CC(=O)O)[C@@H]4C3)c3c(n2)C(F)(F)CCC3)CC1(F)F (stereo partly drawn) [Compound 4-1, 2-((1R,5S,6s)-3-(2-(3,3-difluoro-2-methylazetidin-1-yl)-8,8-difluoro-5,6,7,8-tetrahydroquinazolin-4-yl)-3-azabicyclo[3.1.0]hexan-6-yl)acetic acid]",IC50,[1],2.2 nM
same,EC50,[2]; Homo sapiens,11.8 nM
"C[C@H]1CCN1c1nc(N2C[C@@H]3[C@@H](CC(=O)O)[C@@H]3C2)c2c(n1)C(F)(F)CC2 [Compound 1, 2-((1R,5S,6R)-3-(7,7-difluoro-2-((S)-2-methylazetidin-1-yl)-6,7-dihydro-5H-cyclopenta[d]pyrimidin-4-yl)-3-azabicyclo[3.1.0]hexan-6-yl)acetic acid]",EC50,[2]; Homo sapiens,21.9 nM
